Assay results reported in patent US11464749B2, “Bismuth-thiol compositions and methods of use” (Microbion Corporation, priority 2018, dated 2022).
Read-outs that look alike come from different tables or passages of the source.

Legend:
Klebsiella pneumoniae [1] = assay: Broth microdilution MIC (Example 11)
Enterobacter cloacae = assay: Broth microdilution MIC (Example 11); conditions: ATCCBAA2468
Pseudomonas aeruginosa [2] = assay: Broth microdilution MIC (Example 11); conditions: Pseudomonas aeruginosa
Acinetobacter baumannii [3] = assay: Broth microdilution MIC (Example 11); conditions: Acinetobacter baumannii
[4] = system: Staphylococcus aureus (MRSA); assay: Broth microdilution MIC (Example 11)
E. faecalis = assay: Broth microdilution MIC (Example 11); conditions: Enterococcus faecalis, VRE, VRE Lev^R Cip^R Ery^R
S. pneumoniae = assay: Broth microdilution MIC (Example 11); conditions: Streptococcus pneumoniae
S. pyogenes = assay: Broth microdilution MIC (Example 11); conditions: Streptococcus pyogenes
S. agalactiae = assay: Broth microdilution MIC (Example 11); conditions: Streptococcus agalactiae
Escherichia coli = assay: Broth microdilution MIC (Example 12); conditions: Escherichia coli
Klebsiella pneumoniae [5] = assay: Broth microdilution MIC (Example 12); conditions: Klebsiella pneumoniae
Pseudomonas aeruginosa [6] = assay: Broth microdilution MIC (Example 12); conditions: Pseudomonas aeruginosa
Acinetobacter baumannii [7] = assay: Broth microdilution MIC (Example 12); conditions: Acinetobacter baumannii
[8] = system: Pseudomonas aeruginosa strain PA01; assay: Bacterial killing curves with and without CF patient sputum; design: time to sterilization below the limit of detection: dose or concentration left out as unconfirmed

CC(S)C(C)S.[Bi] (centres unmarked) [BisBDT, bismuth-2,3-butanedithiol]
MIC (Klebsiella pneumoniae [1]; K. pneumoniae MMX 4622, KPC-2, MEM^R, CAZ^R): 1 µg/mL
MIC (Klebsiella pneumoniae [1]; K. pneumoniae MMX 4623, KPC-2, MEM^R, CAZ^R, GM^R): 0.5 µg/mL
MIC (Klebsiella pneumoniae [1]; K. pneumoniae MMX 4653, KPC-3, Lev^R, MEM^R, CAZ^R): 2 µg/mL
MIC (Klebsiella pneumoniae [1]; K. pneumoniae MMX 4683, KPC-2, Lev^R, MEM^R, CAZ^R): 1 µg/mL
MIC (Klebsiella pneumoniae [1]; K. pneumoniae MMX 4684, ESBL, MEM^R): 2 µg/mL
MIC (Klebsiella pneumoniae [1]; K. pneumoniae MMX 4685, ESBL, Lev^R, MEM^R, CAZ^R): 1 µg/mL
MIC (Klebsiella pneumoniae [1]; K. pneumoniae MMX 4694, KPC-3, Lev^R, MEM^R, CAZ^R): 1 µg/mL
MIC (Klebsiella pneumoniae [1]; K. pneumoniae MMX 5979, NDM-1, Lev^R, MEM^R, CAZ^R, Gm^R): 1 µg/mL
MIC (Enterobacter cloacae): 2 µg/mL
MIC (Pseudomonas aeruginosa [2]; ATCC27853, P. aeruginosa MMX 103 (ATCC 27853), QC): 1 µg/mL
MIC (Pseudomonas aeruginosa [2]; P. aeruginosa MMX 1381, MDR, Lev^R, Cip^R, MEM^R, CAZ^R): 1 µg/mL
MIC (Pseudomonas aeruginosa [2]; P. aeruginosa MMX 2562, MDR, Lev^R, Cip^R, MEM^R, CAZ^R): 2 µg/mL
MIC (Pseudomonas aeruginosa [2]; P. aeruginosa MMX 3991, MDR, Lev^R, Cip^R, MEM^R, CAZ^R): 2 µg/mL
MIC (Pseudomonas aeruginosa [2]; P. aeruginosa MMX 4654, IMP-7, Lev^R, Cip^R, MEM^R, CAZ^R): 2 µg/mL
MIC (Pseudomonas aeruginosa [2]; P. aeruginosa MMX 4697, VIM-2, Lev^R, Cip^R, MEM^R, CAZ^R): 2 µg/mL
MIC (Acinetobacter baumannii [3]; A. baumannii MMX 2592, MDR, Lev^R, Cip^R, MEM^R, CAZ^R, Gm^R): 0.5 µg/mL
MIC (Acinetobacter baumannii [3]; A. baumannii MMX 2593, MDR, Lev^R, Cip^R, MEM^R, CAZ^R, Gm^R): 0.5 µg/mL
MIC (Acinetobacter baumannii [3]; A. baumannii MMX 3372, MDR, Cip^R, MEM^I, CAZ^I): 1 µg/mL
MIC (Acinetobacter baumannii [3]; A. baumannii MMX 3373, Sensitive): 0.5 µg/mL
MIC (Acinetobacter baumannii [3]; NCTC13304, A. baumannii MMX 4651 (NCTC 13304), MDR, OXA-27, Lev^R, Cip^R, MEM^R, CAZ^R, Gm^I): 0.5 µg/mL
MIC ([4]; ATCC29213 / MRSA / MSSA): ≤ 0.06 µg/mL
MIC ([4]; MRSA): ≤ 0.06 µg/mL
MIC ([4]; MRSA, read-out: MIC values): < 0.06 µg/mL
MIC (E. faecalis; E. faecalis MMX 8960): 0.5 µg/mL
MIC (E. faecalis; E. faecalis MMX 8961): 0.25 µg/mL
MIC (E. faecalis; E. faecalis MMX 8962): 0.25 µg/mL
MIC (S. pneumoniae; ATCC49619, S. pneumoniae MMX 6837 (ATCC 49619), QC): 0.5 µg/mL
MIC (S. pneumoniae; S. pneumoniae MMX 880, Lev^R SXT^R CC^R Ery^R Pen^R): 0.5 µg/mL
MIC (S. pneumoniae; S. pneumoniae MMX 937, Mem^R SXT^R CC^R Ery^R Pen^R): 8 µg/mL
MIC (S. pneumoniae; S. pneumoniae MMX 3959, CC^R Ery^R): 1 µg/mL
MIC (S. pneumoniae; S. pneumoniae MMX 5440, Mem^R SXT^R CC^R Ery^R Pen^R): 0.5 µg/mL
MIC (S. pneumoniae; S. pneumoniae MMX 5445, Mem^R SXT^R CC^R Ery^R Pen^R): 0.5 µg/mL
MIC (S. pneumoniae; S. pneumoniae MMX 8133, Mem^R SXT^R CC^R Ery^R Pen^R): 0.5 µg/mL
MIC (S. pneumoniae; read-out: MIC values, pneumococci incl. multi-drug resistant): 0.5 to 8 µg/mL
MIC (S. pyogenes; S. pyogenes MMX 3068, Ery^R): 0.12 µg/mL
MIC (S. pyogenes; S. pyogenes MMX 3820, ERY^R CLI^R): 0.5 µg/mL
MIC (S. pyogenes; S. pyogenes MMX 3919, ERY^R): 0.03 µg/mL
MIC (S. pyogenes; S. pyogenes MMX 3929, ERY^R CC^R): 0.5 µg/mL
MIC (S. pyogenes; S. pyogenes MMX 5091, ERY^R CC^R): 1 µg/mL
MIC (S. agalactiae; S. agalactiae MMX 3741, ERY^R CC^R): 0.25 µg/mL
MIC (S. agalactiae; S. agalactiae MMX 3743, ERY^R CC^R): 0.25 µg/mL
MIC (S. agalactiae; S. agalactiae MMX 4077, ERY^R CC^R): 0.25 µg/mL
MIC (S. agalactiae; S. agalactiae MMX 4079, ERY^R CC^R Pen^R MEM^R): 0.5 µg/mL
MIC (S. agalactiae; S. agalactiae MMX 4086, ERY^R CC^R): 0.25 µg/mL
MIC (Escherichia coli; ATCC25922, E. coli ATCC 25922, QC organism): 1 µg/mL
MIC (Escherichia coli; ATCC35218, E. coli ATCC 35218, ESBL): 1 µg/mL
MIC (Escherichia coli; ATCC35218, E. coli ATCC 35218, QC organism (Table 102)): 1 µg/mL
MIC (Escherichia coli; ATCCBAA2471, E. coli ATCC BAA-2471, NDM): 2 µg/mL
MIC (Escherichia coli; E. coli CDC 114, ESBL/KPC): 2 µg/mL
MIC (Escherichia coli; E. coli CDC 118, ESBL/NDM): 1 µg/mL
MIC (Escherichia coli; E. coli CDC 435, NDM): 1 µg/mL
MIC (Escherichia coli; E. coli CDC 451, KPC): 1 µg/mL
MIC (Escherichia coli; E. coli CDC 503, ESBL/NDM): 2 µg/mL
MIC (Escherichia coli; E. coli MMX 5745, KPC): 2 µg/mL
MIC (Escherichia coli; E. coli MMX 5755, ESBL): 2 µg/mL
MIC (Escherichia coli; E. coli MMX 5756, ESBL): 1 µg/mL
MIC (Escherichia coli; E. coli MMX 5758, ESBL): 1 µg/mL
MIC (Klebsiella pneumoniae [5]; ATCCBAA1705, K. pneumoniae ATCC BAA-1705, ESBL/KPC): 1 µg/mL
MIC (Klebsiella pneumoniae [5]; ATCCBAA1705, K. pneumoniae ATCC BAA-1705, QC organism (Table 102)): 1 µg/mL
MIC (Klebsiella pneumoniae [5]; K. pneumoniae CDC 112, KPC): 2 µg/mL
MIC (Klebsiella pneumoniae [5]; K. pneumoniae CDC 113, ESBL/KPC): 1 µg/mL
MIC (Klebsiella pneumoniae [5]; K. pneumoniae CDC 115, ESBL/KPC): 2 µg/mL
MIC (Klebsiella pneumoniae [5]; K. pneumoniae CDC 120, ESBL/KPC): 2 µg/mL
MIC (Klebsiella pneumoniae [5]; K. pneumoniae CDC 126, ESBL/KPC): 2 µg/mL
MIC (Klebsiella pneumoniae [5]; K. pneumoniae CDC 129, ESBL/KPC): 4 µg/mL
MIC (Klebsiella pneumoniae [5]; K. pneumoniae CDC 135, ESBL/VIM): 4 µg/mL
MIC (Klebsiella pneumoniae [5]; K. pneumoniae CDC 138, ESBL/NDM): 2 µg/mL
MIC (Klebsiella pneumoniae [5]; K. pneumoniae CDC 158, ESBL/NDM/OXA): 2 µg/mL
MIC (Klebsiella pneumoniae [5]; K. pneumoniae MMX 9029, ESBL): 2 µg/mL
MIC (Pseudomonas aeruginosa [6]; ATCC27853, P. aeruginosa ATCC 27853, QC organism): 1 µg/mL
MIC (Pseudomonas aeruginosa [6]; P. aeruginosa CDC 230, VIM/OXA): 2 µg/mL
MIC (Pseudomonas aeruginosa [6]; P. aeruginosa CDC 231, KPC/OXA): 2 µg/mL
MIC (Pseudomonas aeruginosa [6]; P. aeruginosa CDC 241, IMP/OXA): 8 µg/mL
MIC (Pseudomonas aeruginosa [6]; P. aeruginosa CDC 246, NDM/OXA): 2 µg/mL
MIC (Pseudomonas aeruginosa [6]; P. aeruginosa CDC 250, NDM/OXA): 2 µg/mL
MIC (Pseudomonas aeruginosa [6]; P. aeruginosa CDC 356, KPC): 1 µg/mL
MIC (Pseudomonas aeruginosa [6]; P. aeruginosa CDC 439, IMP): 1 µg/mL
MIC (Pseudomonas aeruginosa [6]; P. aeruginosa CDC 444, VIM): 1 µg/mL
MIC (Pseudomonas aeruginosa [6]; P. aeruginosa CDC 457, VIM): 2 µg/mL
MIC (Pseudomonas aeruginosa [6]; P. aeruginosa CDC 516, KPC/AmpC): 1 µg/mL
MIC (Pseudomonas aeruginosa [6]; P. aeruginosa CDC 518, KPC/AmpC): 1 µg/mL
MIC (Acinetobacter baumannii [7]; A. baumannii CDC 273, ESBL/OXA): 0.5 µg/mL
MIC (Acinetobacter baumannii [7]; A. baumannii CDC 274, ESBL/OXA): 0.5 µg/mL
MIC (Acinetobacter baumannii [7]; A. baumannii CDC 275, ESBL/OXA): 0.5 µg/mL
MIC (Acinetobacter baumannii [7]; A. baumannii CDC 277, ESBL/OXA): 1 µg/mL
MIC (Acinetobacter baumannii [7]; A. baumannii CDC 284, ESBL/OXA): 1 µg/mL
MIC (Acinetobacter baumannii [7]; A. baumannii CDC 307, OXA): 0.5 µg/mL
MIC (Acinetobacter baumannii [7]; A. baumannii CDC 308, ESBL/OXA): 0.5 µg/mL
MIC (Acinetobacter baumannii [7]; A. baumannii CDC 311, OXA): 0.5 µg/mL
MIC (Acinetobacter baumannii [7]; A. baumannii CDC 312, OXA): 0.5 µg/mL
MIC (Acinetobacter baumannii [7]; A. baumannii CDC 313, ESBL/OXA): 0.5 µg/mL
MIC (Acinetobacter baumannii [7]; NCTC13304, A. baumannii NCTC 13304, OXA): 0.5 µg/mL
bactericidal activity against PA01 ([8]; 0.1 μg/mL): not bactericidal
effect of CF patient sputum on bactericidal activity ([8]; 10% CF patient sputum): partially inhibited
time to sterilization below the limit of detection ([8]; with and without sputum): ≤ 5 h
